Data from patent US9746463B2 (THE TRUSTEES OF COLUMBIA UNIVERSITY IN THE CITY OF NEW YORK, priority 2006, dated 2017).
Ends that are not written are not given here.

Key:
[1] = test system: Adiponectin expression in WT adipocytes; test: Adiponectin expression in adipocytes treated with osteocalcin (real time PCR); format: cell-based, mouse; conditions: wild type adipocytes treated for 4 hours, real time PCR, vs vehicle
Method: FIG. 7A-O. Esp−/− Mice Are a Model of Increased Osteocalcin Bioactivity. (FIGS. 7A-G) Comparison between 6-week-old WT, Esp−/, Ocn+/−, and Esp−/−; Ocn+/− mice. (FIG. 7A) Blood glucose levels. (FIG. 7B) Serum insulin levels. (FIG. 7C) Serum adiponectin levels. (FIG. 7D) GTT. (FIG. 7E) ITT. (FIG. 7F) GSIS test. (FIG. 7G) Quantification of the number of Ki67-immunoreactive cells in pancreatic islets. […] (FIG. 7K) Expression of Adiponectin in WT adipocytes cultured in presence of vehicle or of 1 ng/ml of commercially available carboxylated osteocalcin (Immunotopics) or bacterially produced uncarboxylated osteocalcin. (FIG. 7L) Expression of Insulin and Cyclin D1 in WT islets cultured in presence of 0.3 ng/ml of bacterially produced uncarboxylated osteocalcin or vehicle. (FIG. 7M) Metabolic parameters and total serum osteocalcin levels in control and obese patients. (FIG. 7N-O) Quantification of carboxylated osteocalcin (HA-bound osteocalcin) in control and obese patients. In (FIGS. 7A)-(C) and (FIGS. G)-(L): *p<0.05 versus WT (Student's t test); in (FIG. D)-(F), °p<0.05 versus WT and *p % 0.001 versus WT (ANOVA followed by post hoc analysis).
FIG. 15. […] Wt adipocytes were treated for 4 hours with recombinant full-length osteocalcin (1-46) or a truncated form (1-36) or vehicle. Adiponectin expression was then quantified by real time PCR.
Primary adipocytes were isolated from epididymal fat pads by collagenase digestion. Briefly, minced adipose tissue was digested by 1 mg/ml collagenase P in KRP Buffer (20 mM HEPES, 120 mM NaCl, 6 mM KCl, 1.2 mM MgSO4, 1 mM CaCl2, 0.6 mM Na2HPO4, 0.4 mM NaH2PO4, 2.5 mM D-glucose, 2% BSA, pH 7.4) for 1 h at 37° C. The isolated cells were washed twice with KRP Buffer before being cultured in αMEM/1% FBS at 37° C. in 5% CO2.
Gene expression analyses. All gene expression analyses were performed using real time PCR. DNAse I-treated total RNA was converted to cDNA with the SuperScript III kit (Invitrogen). Real-time PCR were performed using the Taq SYBR Green Supermix with ROX (Biorad) on an MX3000 instrument (Stratagene); beta-actin amplification was used as an internal reference for each sample. All primers were from SuperArray.
A fragment of uncarboxylated osteocalcin is biologically active. Experiments were performed to test whether truncated osteocalcin was as effective as full-length uncarboxylated osteocalcin in stimulating adiponectin secretion from mouse adipocytes in vitro. Wild type adipocytes were treated for 4 hours with recombinant full-length osteocalcin (1-46) or a truncated form (1-36) (having a deletion of the first ten amino acids from the C-terminal end) or vehicle. Adiponectin expression was then quantified by real time PCR. […]

[2] = Osteocalcin subcutaneous infusion in wt mice: glucose tolerance after glucose injection; format: in vivo, mouse; conditions: wild type mice, 0.3 or 3 ng/hour subcutaneously for 14 days, then glucose injection, 120 minutes, vs PBS
Method: FIG. 11. […] Wt mice were infused subcutaneously with indicated doses of recombinant osteocalcin or PBS for 14 days before receiving a single injection of glucose. Blood glucose was measured thereafter at indicated times.
Metabolic studies. For glucose tolerance test (GTT), glucose (2 g/kg body weight (BW)) was injected intraperitoneally (IP) after an overnight fast and blood glucose was monitored using blood glucose strips and the Accu-Check glucometer (Roche) at indicated times. For glucose stimulated insulin secretion test (GSIS), glucose (3 g/kg BW) was injected IP after an overnight fast; sera were collected from tails and insulin measured as described (Mauvais-Jarvis et al., 2000). For insulin tolerance test (ITT), mice were fasted for six hours, injected IP with insulin (0.2 U/kg BW) and blood glucose levels were measured at indicated times as described (Mauvais-Jarvis et al., 2002). ITT data are presented as percentage of initial blood glucose concentration. […] Streptozotocin ([…] single injection, Sigma) was injected IP and blood glucose measured as described above every 2 days thereafter. […] Food intake was measured using metabolic cages as the daily change of food weight. Energy expenditure was measured using metabolic cages connected to a calorimeter (Columbus Instrument). Heat values (Kcal/Hr) were recorded over 2 days and reported to each mouse BW. […]

[3] = Osteocalcin subcutaneous infusion in wt mice: body weight and gonadal fat pad mass; format: in vivo, mouse
Method: (FIG. 13A) Indicated doses of recombinant osteocalcin or PBS were infused subcutaneously for 28 days in wt mice. Body weight was recorded at indicated days. (FIG. 13B) Gonadal fat pad mass was measured after 28 days.
In another in vivo experiment, the effect of uncarboxylated osteocalcin on body weight and fat pad mass was monitored (FIG. 13). Wild type mice were infused subcutaneously for 28 days with PBS or uncarboxylated osteocalcin at 0.3, 1 or 3 ng/hour. […] (FIG. 13) Gonadal fat pad mass, measured after 28 days, decreased by about %18 with 3 ng/hour uncarboxylated osteocalcin treatment.

[4] = Osteocalcin subcutaneous infusion in wt mice: glycemia; format: in vivo, mouse; conditions: wild type mice, 0.3, 1 and 3 ng/hour subcutaneously for 28 days, vs PBS
Method: FIG. 10. […] Indicated doses of recombinant osteocalcin or PBS were infused subcutaneously for 28 days in wt mice. Blood glucose was measured at indicated days.
An in vivo experiment was conducted in which the effect of undercarboxylated osteocalcin on glycemia was monitored. Wild type mice were infused with 3 different amounts of mouse recombinant undercarboxylated osteocalcin or placebo (PBS) subcutaneously for 28 days (0.3, 1 and 3 ng/hour).

[5] = listed as recombinant osteocalcin

Substance: uncarboxylated osteocalcin: Recombinant mouse osteocalcin bacterially produced as GST fusion, cleaved with thrombin; completely undercarboxylated at all three sites (YLGASVPSPDPLEPTREQCELNPACDELSDQYGLKTAYKRIYGITI; not fully specified; ends and bridges not checked; UniProt P86546 50-95, looked up)
- increase of Adiponectin expression [1]: ~1.5 fold
- glucose tolerance [2]: increased glucose tolerance
- glucose tolerance [2, 5]: increases glucose tolerance
- decrease of gonadal fat pad mass ([3]; 3 ng/hour, measured after 28 days): ~18%
- fat mass ([3]; indicated doses infused subcutaneously for 28 days (figure legend)): decreases fat mass
- gonadal fat pad mass ([3]; the other doses (0.3, 1 ng/hour), 28 days): did not significantly decrease fat pad mass
- body weight ([3]; wild type mice, 0.3, 1 or 3 ng/hour subcutaneously for 28 days, highest dose most effective): slightly reduced
- glycemia (blood glucose) [4, 5]: decreases glycemia
- glycemia (blood glucose) ([4]; listed as undercarboxylated osteocalcin): decreased glycemia
